One assay relates to ov-NNMT NCI-H82 cell. Kind of assay: Cell viability (Promega CellTiter-Glo, intracellular ATP), IC50 on NNMT-overexpressing NCI-H82 cell. It is filed as cell-based. The settings on record: Homo sapiens; NCI-H82 cell overexpressing NNMT protein. The text has this: (§1) The expression of NNMT protein in NCI-H82 cell was overexpressed by inserting the NNMT gene into NCI-H82 cell using a viral vector, and the NNMT protein-overexpressing NCI-H82 cell (ov-NNMT NCI-H82 cell) was obtained. The normal and untreated NCI-H82 cell (Con-NCI-H82 cell) was used as control. The expressing content of NNMT protein in the ov-NNMT NCI-H82 cell and Con-NCI-H82 cell was detected using Western Blot assay (as shown in FIG. 1), it could be seen from FIG. 1 that the NNMT protein was overexpressed in the ov-NNMT NCI-H82 cell compared with the expression level of NNMT protein in the Con-NCI-H82 cell.
(§2) The cell viability was detected using the Promega CellTiter-Glo kit which reflected cell viability by measuring intracellular ATP content. The Con-NCI-H82 cell and ov-NNMT NCI-H82 cell was cultured in 10% fetal bovine serum-containing RPMI1640 medium (+P/S).

Another assay deals with Con-NCI-H82 cell. Briefly: Cell viability (Promega CellTiter-Glo, intracellular ATP), IC50 on Con-NCI-H82 cell. The note with it: Homo sapiens; normal untreated NCI-H82 cell (control). The format is cell-based.
Description: as §1, §2

pIC50: −log10 of the molar value.

Turning to `Cc1ccc(C(=O)Cn2ccc3c[n+](Cc4ccccc4)ccc32)cc1` [AB27260], the pIC50 in the assay on ov-NNMT NCI-H82 cell was 6.61; with Con-NCI-H82 cell, 7.89.
`O=C(Cn1ccc2c[n+](Cc3ccccc3)ccc21)c1cccc(C(F)(F)F)c1` [AB27262]: the pIC50 was 6.00 with ov-NNMT NCI-H82 cell and 7.24 in the assay with Con-NCI-H82 cell.
Taken in the same sequence, the figures for `O=C(Cn1ccc2c[n+](Cc3ccccc3)ccc21)c1cccc(OC(F)(F)F)c1` [AB27263] were 6.49 and 7.49.
The matching figures for `O=C(Cn1ccc2c[n+](Cc3ccccc3)ccc21)c1ccc(C(F)(F)F)cc1` [AB27264]: 5.65 and 6.57.
For the compound `O=C(Cn1ccc2c[n+](Cc3ccccc3)ccc21)c1ccc(OC(F)(F)F)cc1` [AB27265], the results for the pIC50 in the assay on ov-NNMT NCI-H82 cell and with Con-NCI-H82 cell were 6.06 and 6.91, respectively.
The matching figures for `Cc1cn(CC(=O)c2cccc(Cl)c2)c2cc[n+](Cc3ccccc3)cc12` [AB27266]: 6.12 and 7.05.
Regarding `Cc1cccc(C(=O)Cn2cc(C)c3c[n+](Cc4ccccc4)ccc32)c1` [AB27267], the pIC50 with ov-NNMT NCI-H82 cell is 6.04; in the assay with Con-NCI-H82 cell, 6.95.
Take `Cc1ccc(C(=O)Cn2cc(C)c3c[n+](Cc4ccccc4)ccc32)cc1` [AB27268]: the pIC50 with ov-NNMT NCI-H82 cell is 5.88; in the assay on Con-NCI-H82 cell, 6.98.
As for `O=C(Cn1cc(Cl)c2c[n+](Cc3ccccc3)ccc21)c1cccc(Cl)c1` [AB27269], the negative-log IC50 (pIC50) with ov-NNMT NCI-H82 cell was 5.66; in the assay with Con-NCI-H82 cell it was 6.63.
The matching figures for `Cc1cn(CC(=O)c2cccc(Cl)c2)c2cc[n+](C(C)c3ccccc3)cc12` (stereo not shown) [AB27270]: 5.43 and 6.40.
On to `O=C1c2cc(Cl)ccc2CCC1n1cc(Cl)c2c[n+](Cc3ccccc3)ccc21` (stereo not shown) [AB27271], for which the pIC50 was 6.25 with ov-NNMT NCI-H82 cell and 7.47 in the assay on Con-NCI-H82 cell.
Taken in the same sequence, the figures for `Cc1ccc(C(=O)C[n+]2ccc(NCc3ccccc3)c3ccccc32)cc1` [AB27272] were 5.26 and 6.11.
The matching figures for `Cc1cc(NCc2ccccc2)cc[n+]1CC(=O)c1ccc(C(F)(F)F)cc1` [AB27273]: 5.81 and 6.73.
Taken in the same sequence, the figures for `Cc1cc(NCc2ccccc2)cc[n+]1CC(=O)c1ccc(OC(F)(F)F)cc1` [AB27274] were 5.34 and 6.18.
For `Cc1cc(NCc2ccccc2)cc[n+]1CC(=O)c1cccc(C(F)(F)F)c1` [AB27275], the pIC50 with ov-NNMT NCI-H82 cell is 6.05; in the assay on Con-NCI-H82 cell, 7.20.
Taken in the same sequence, the figures for `Cc1cc(NCc2ccccc2)cc[n+]1CC(=O)c1cccc(OC(F)(F)F)c1` [AB27276] were 5.95 and 7.04.
Taken in the same sequence, the figures for `Cc1ccc(C(=O)C[n+]2ccc(NCc3ccccc3)c(C)c2C)cc1` [AB27278] were 6.55 and 7.68.
Regarding `Cc1ccc(C(=O)CN(C)c2cc[n+](Cc3ccccc3)cc2)cc1` [AB27285], the pIC50 in the assay on ov-NNMT NCI-H82 cell is 5.87; with Con-NCI-H82 cell, 6.44.
Taken in the same sequence, the figures for `Cc1ccc2c(c1)C(=O)C([n+]1ccc3cn(Cc4ccccc4)cc3c1)CC2` (stereo not shown) [AB27287] were 5.60 and 6.70.
With `O=C1c2cc(C(F)(F)F)ccc2CCC1[n+]1ccc2cn(Cc3ccccc3)cc2c1` (stereo not shown) [AB27288], the pIC50 in the assay on ov-NNMT NCI-H82 cell was 5.60; in the assay on Con-NCI-H82 cell, 6.46.
Taken in the same sequence, the figures for `O=C1c2cc(OC(F)(F)F)ccc2CCC1[n+]1ccc2cn(Cc3ccccc3)cc2c1` (stereo not shown) [AB27289] were 5.69 and 6.55.
Turning to `O=C1c2ccc(C(F)(F)F)cc2CCC1n1ccc2c[n+](Cc3ccccc3)ccc21` (stereo not shown) [AB27290], the negative-log IC50 (pIC50) in the assay with ov-NNMT NCI-H82 cell was 6.03; with Con-NCI-H82 cell it was 7.04.
The matching figures for `O=C1c2ccc(OC(F)(F)F)cc2CCC1n1ccc2c[n+](Cc3ccccc3)ccc21` (stereo not shown) [AB27291]: 5.99 and 7.10.
Taken in the same sequence, the figures for `O=C1c2ccc(C(F)(F)F)cc2CCC1[n+]1ccc2cn(Cc3ccccc3)cc2c1` (stereo not shown) [AB27294] were 5.18 and 5.98.
Taken in the same sequence, the figures for `O=C1c2ccc(OC(F)(F)F)cc2CCC1[n+]1ccc2cn(Cc3ccccc3)cc2c1` (stereo not shown) [AB27295] were 5.07 and 6.14.
Take `Cc1ccc(C(=O)C[n+]2ccc3cn(Cc4ccccc4)cc3c2)cc1` [AB27296]: the pIC50 in the assay on ov-NNMT NCI-H82 cell is 5.45; with Con-NCI-H82 cell it was 6.40.
Take `Cc1ccc(C(=O)CN(CC(=O)c2ccc(C)cc2)c2cc[n+](Cc3ccccc3)cc2)cc1` [AB27299]: the figures for the pIC50 in the assay on ov-NNMT NCI-H82 cell and in the assay on Con-NCI-H82 cell were 5.74 and 6.17, respectively.
Taken in the same sequence, the figures for `CC(=O)C[n+]1ccc2c(ccn2C2CCc3ccc(Cl)cc3C2=O)c1` (stereo not shown) [AB27313] were 5.13 and 5.36.
`O=C(C[n+]1ccc2c(ccn2C2CCc3ccc(Cl)cc3C2=O)c1)c1ccccc1` (stereo not shown) [AB27314]: the pIC50 in the assay with ov-NNMT NCI-H82 cell was 5.25; in the assay with Con-NCI-H82 cell it was 5.52.
Taken in the same sequence, the figures for `Cc1ccc(C(=O)C[n+]2ccc(NCc3ccccc3)cc2C)cc1C` [AB27327] were 5.98 and 7.17.
Taken in the same sequence, the figures for `Cc1ccc(C(=O)C[n+]2ccc(NCc3cccc(C)n3)cc2C)cc1` [AB27328] were 5.07 and 5.55.
Taken in the same sequence, the figures for `Cc1ccc(C(=O)C[n+]2ccc(NCc3ccc(C)nc3)cc2C)cc1` [AB27330] were 4.87 and 5.29.
For the compound `Cn1cc(Cc2ccccc2)c2cc[n+](C3CCc4ccc(OC(F)(F)F)cc4C3=O)cc21` (stereo not shown) [AB27339], the pIC50 in the assay on ov-NNMT NCI-H82 cell was 5.54; in the assay with Con-NCI-H82 cell, 6.47.
Taken in the same sequence, the figures for `Cc1ccc(C(=O)C[n+]2ccc3c(Cc4ccccc4)cn(C)c3c2)cc1` [AB27341] were 4.98 and 5.45.
Taken in the same sequence, the figures for `Cc1ccc(C(=O)C[n+]2ccc3c(Cc4ccccc4)cn(C)c3c2C)cc1` [AB27343] were 5.23 and 5.69.
Taken in the same sequence, the figures for `O=C1c2cc(F)ccc2CCC1n1ccc2c[n+](Cc3ccccc3)ccc21` (stereo not shown) [AB27353] were 6.48 and 7.72.
For `CC(c1ccccc1)[n+]1ccc2c(ccn2C2CCc3ccc(F)cc3C2=O)c1` (stereo not shown) [AB27354], the pIC50 with ov-NNMT NCI-H82 cell is 6.65; in the assay on Con-NCI-H82 cell it was 7.89.
The matching figures for `Cc1cc2c[n+](Cc3ccccc3)ccc2n1CC(=O)c1ccc(C(F)(F)F)cc1` [AB27357]: 5.91 and 7.13.
In the case of `Cc1cc2c[n+](Cc3ccccc3)ccc2n1CC(=O)c1ccc(OC(F)(F)F)cc1` [AB27358], the pIC50 was 5.96 in the assay on ov-NNMT NCI-H82 cell and 7.08 in the assay on Con-NCI-H82 cell.
Taken in the same sequence, the figures for `Cc1cn(C2CCc3ccc(F)cc3C2=O)c2cc[n+](Cc3ccccc3)cc12` (stereo not shown) [AB27460] were 6.36 and 7.47.
The matching figures for `Cc1cn(CC(=O)c2ccc(OC(F)(F)F)cc2)c2cc[n+](Cc3ccccc3)cc12` [AB27461]: 5.03 and 5.70.
Taken in the same sequence, the figures for `Cc1cn(C2CCc3ccc(C(F)(F)F)cc3C2=O)c2cc[n+](Cc3ccccc3)cc12` (stereo not shown) [AB27464] were 5.87 and 6.76.
Take `Cc1cn(C2CCc3ccc(OC(F)(F)F)cc3C2=O)c2cc[n+](Cc3ccccc3)cc12` (stereo not shown) [AB27465]: the pIC50 is 5.99 in the assay on ov-NNMT NCI-H82 cell and 6.80 with Con-NCI-H82 cell.
The matching figures for `Cc1cn(C2CCc3ccc(C(F)(F)F)cc3C2=O)c2cc[n+](C(C)c3ccccc3)cc12` (stereo not shown) [AB27468]: 5.22 and 6.24.

The values above are taken from patent publication US20250214993A1, “AROMATIC RING COMPOUND AND USE THEREOF” (SHANGHAI SHIJIANG BIOTECHNOLOGY CO., LTD, priority 2022, published 2025).
